According to publication PMC8587475, “Black Bean (Phaseolus vulgaris L.) Polyphenolic Extract Exerts Antioxidant and Antiaging Potential” (Molecules, 2021):

Target: T1, elastase from porcine pancreas (EC 3.4.21.36) (Sus scrofa, UniProt P00772)
T1 construct: gene CELA1; commercial native enzyme from porcine pancreas (Sigma-Aldrich), mature; docking model PDB 1BRU (elastase 2) is not the assay sample
Experiment: N-succinyl-Ala-Ala-Ala-p-nitroanilide hydrolysis, absorbance at […] nm
Format: biochemical

T1 sequence (P00772 27-266): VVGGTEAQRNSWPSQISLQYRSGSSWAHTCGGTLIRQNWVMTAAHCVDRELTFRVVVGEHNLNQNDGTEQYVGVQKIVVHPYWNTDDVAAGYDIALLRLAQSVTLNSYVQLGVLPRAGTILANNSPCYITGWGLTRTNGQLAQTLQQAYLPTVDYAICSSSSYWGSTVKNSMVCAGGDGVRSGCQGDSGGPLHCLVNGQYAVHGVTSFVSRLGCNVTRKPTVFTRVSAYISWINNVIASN

- IC50: 18.4 µM
Compound: Oc1cc(O)c2c(c1)OC(c1ccc(O)c(O)c1)C(O)C2 (racemic) [catechin]
